Experimental data from patent publication US20260297542A1, “HERBICIDE RESISTANT PLANTS” (SYNGENTA CROP PROTECTION AG, priority 2023, published 2026).
Substitutions are numbered along the chain they refer to.

Assays:
[1] = target: T1, AtPPO1 S305L Y426V L479M (SEQ ID NO.131) (Arabidopsis thaliana, UniProt P55826, L479M/S305L/Y426V); assay: fluorescent Protoporphyrinogen Oxidase assay, crude extract; format: biochemical; conditions: read-out: percentage inhibition
T1 construct: made in house; host or cells: E. coli BL21 (DE3) hemG, crude extract
T1 sequence (P55826 35-537 S305L/Y426V/L479M): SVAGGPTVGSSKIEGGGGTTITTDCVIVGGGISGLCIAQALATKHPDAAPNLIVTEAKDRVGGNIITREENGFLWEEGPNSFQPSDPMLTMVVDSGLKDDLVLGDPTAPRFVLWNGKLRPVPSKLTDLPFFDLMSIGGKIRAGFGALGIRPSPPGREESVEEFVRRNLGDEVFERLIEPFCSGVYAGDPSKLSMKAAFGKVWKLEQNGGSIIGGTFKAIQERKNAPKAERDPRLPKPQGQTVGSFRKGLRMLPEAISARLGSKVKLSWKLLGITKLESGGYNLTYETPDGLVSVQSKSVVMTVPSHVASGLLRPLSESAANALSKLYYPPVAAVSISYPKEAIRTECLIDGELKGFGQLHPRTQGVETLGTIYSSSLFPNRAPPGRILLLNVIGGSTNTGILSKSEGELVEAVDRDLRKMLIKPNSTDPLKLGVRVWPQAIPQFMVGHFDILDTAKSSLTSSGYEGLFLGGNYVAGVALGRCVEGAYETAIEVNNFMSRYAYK

[2] = target: T2, AtPPO1 Y361D V365L (SEQ ID NO.135) (Arabidopsis thaliana, UniProt P55826, V365L/Y361D); assay: as above; format: biochemical; conditions: for improvement over SEQ ID NO:124: AtPPO1 Y361D V365L (SEQ ID NO:135) vs SEQ ID NO:124; for inhibition at 0.1 ppm / inhibition at 1 ppm / inhibition at 10 ppm / inhibition at 100 ppm: read-out: percentage inhibition
T2 construct: made in house; host or cells: E. coli BL21 (DE3) hemG, crude extract
T2 sequence (P55826 35-537 Y361D/V365L): T1 sequence (P55826 35-537 S305L/Y426V/L479M) with L271S, Y327D, V331L, V392Y, M445L

Row | SMILES | inhibition at 0.1 ppm [1] | inhibition at 1 ppm [1] | inhibition at 10 ppm [1] | inhibition at 100 ppm [1] | improvement over SEQ ID NO:124 [2] | inhibition at 0.1 ppm [2] | inhibition at 1 ppm [2] | inhibition at 10 ppm [2] | inhibition at 100 ppm [2]
1 | CC(C)N(C)S(=O)(=O)NC(=O)c1cc(-n2c(=O)cc(C(F)(F)F)n(C)c2=O)c(F)cc1Cl [Herbicide E, saflufenacil] | 0% | 28% | 70% | 87% | improvement over SEQ ID NO:124 was seen | 0% | 31% | 83% | 100%
2 | C#CCN1C(=O)C(F)(F)Oc2cc(F)c(-n3c(=O)n(C)c(=S)n(C)c3=O)cc21 [Herbicide B, trifludimoxazin] | 99% | 96% | 100% | 100% | improvement over SEQ ID NO:124 was seen | 82% | 100% | 100% | 100%
3 | CCOC(=O)[C@]1(C)CC(c2cc(-n3c(=O)n(C)c(=S)n(C)c3=O)c(F)cc2Cl)=NO1 [Herbicide D, ethyl (5S)-3-[2-chloro-5-(3,5-dimethyl-2,6-dioxo-4-thioxo-1,3,5-triazinan-1-yl)-4-fluoro-phenyl]-5-methyl-4H-isoxazole-5-carboxylate] | 4% | 46% | 76% | 97% | improvement over SEQ ID NO:124 was seen | 2% | 63% | 93% | 100%
4 | CCOC(=O)C1(C)CC(c2cc(-n3c(=O)cc(C(F)(F)F)n(C)c3=O)c(F)cc2Cl)=NO1 (centres unmarked) [Herbicide C, 3-(2-chloro-4-fluoro-5-(3-methyl-2,6-dioxo-4-trifluoromethyl-3,6-dihydropyrimidin-1(2H)-yl)phenyl)-5-methyl-4,5-dihydroisoxazole-5-carboxylic acid ethyl ester] | 28% | 59% | 90% | 100% | improvement over SEQ ID NO:124 was seen | 30% | 84% | 94% | 100%
5 | CCOC(=O)COc1ncccc1Oc1cc(-n2c(=O)cc(C(F)(F)F)n(C)c2=O)c(F)cc1Cl [Herbicide A, epyrifenacil] | 0% | 52% | 87% | 100% | – | 56% | 89% | 99% | 96%
